This is an account of results in ChEMBL document CHEMBL3045431, “Stability of DNA upon interaction with dimethyltin dichloride” (Med Chem Res, 2007).

pKd: −log10 of the molar value. Active and inactive are the calls of the source. The calls are words filed in the database; no cut-off is given here.

A word on the pKd: it is −log10 of the Kd, conventionally taken in molar units.

For assay [1], the system named is DNA. The assay is described as follows: Binding affinity to Bos taurus (calf) thymus DNA at 13.6 mM by isothermal spectrophotometric titration method. Format: nucleic-acid assay.
The test system of assay [2] is DNA. The assay is described as follows: Binding affinity to Bos taurus (calf) thymus DNA at 9 mM by isothermal spectrophotometric titration method. Format: nucleic-acid assay.
The test system of assay [3] is DNA. The assay is described as follows: Binding affinity to Bos taurus (calf) thymus DNA at 2 mM by isothermal spectrophotometric titration method. Format: nucleic-acid assay.
The test system of assay [4] is DNA. The assay is described as follows: Binding affinity to Bos taurus (calf) thymus DNA at 0.5 mM by isothermal spectrophotometric titration method. Format: nucleic-acid assay.
Assay [5] has as its system DNA. The assay is described as follows: Thermal stabilization of Bos taurus (calf) thymus DNA assessed as change in melting temperature at 2 mM by differential scanning calometric method. Format: nucleic-acid assay.
For assay [6], the system named is DNA. The assay is described as follows: Binding affinity to Bos taurus (calf) thymus DNA at 11 mM by isothermal spectrophotometric titration method. Format: nucleic-acid assay.
A short description of assay [7]: Binding affinity to DNA assessed as association constant at < 2 mM by isothermal spectrophotometric titration method.
The subject of assay [8] is DNA. The assay is described as follows: Thermal stabilization of Bos taurus (calf) thymus DNA assessed as change in melting temperature at 13.6 mM by differential scanning calometric method. Type of assay: nucleic-acid assay.
Assay [9] in a line: Binding affinity to DNA assessed as dissociation constant at < 2 mM by isothermal spectrophotometric titration method.

For the substance [sequence], the K in the assay on DNA [1] is 0.143 ×10³ /M; in the assay with DNA [2], 0.123 ×10³ /M; with DNA [3], 3.53 ×10³ /M; in the assay with DNA [4], 3.59 ×10³ /M; in the assay on DNA [6], 0.125 ×10³ /M. The result in the assay with DNA [5] was Active. In addition, the Ka in [7] was 3.56 ×10³ /M. For the same substance, in the assay on DNA [8], the Tm worked out at 70.2 °C.

Regarding DICHLORODIMETHYLSTANNANE, in assay [9], the pKd is 3.55.
